Test results reported in publication PMC12436592 (Nature Communications, 2025).
“And” between values parts separate entries of the source, which are not always exact repeats. Equal values may be shown once.

Experiments:
hP2X7R [1] = biological target: T1, hP2X7R (Homo sapiens, UniProt Q99572); test: Ethidium bromide accumulation in hP2X7R-expressing HEK293 cells; type: cell-based; parameters: expressed in transfected cells; conditions: for mean % of maximum accumulation / MAX100 (% of maximum accumulation, replicates 1-3): BzATP 6 μM; for IC50: hP2X7R, ethidium bromide accumulation, mean ± SD, triplicate; for ΔΔGexp: relative to UB-ALT-P30, from experimental pIC50 values, T = 298 K; for MAX100 (% of maximum accumulation, replicates 1-3): single replicates
T1 sequence (Q99572 1-595): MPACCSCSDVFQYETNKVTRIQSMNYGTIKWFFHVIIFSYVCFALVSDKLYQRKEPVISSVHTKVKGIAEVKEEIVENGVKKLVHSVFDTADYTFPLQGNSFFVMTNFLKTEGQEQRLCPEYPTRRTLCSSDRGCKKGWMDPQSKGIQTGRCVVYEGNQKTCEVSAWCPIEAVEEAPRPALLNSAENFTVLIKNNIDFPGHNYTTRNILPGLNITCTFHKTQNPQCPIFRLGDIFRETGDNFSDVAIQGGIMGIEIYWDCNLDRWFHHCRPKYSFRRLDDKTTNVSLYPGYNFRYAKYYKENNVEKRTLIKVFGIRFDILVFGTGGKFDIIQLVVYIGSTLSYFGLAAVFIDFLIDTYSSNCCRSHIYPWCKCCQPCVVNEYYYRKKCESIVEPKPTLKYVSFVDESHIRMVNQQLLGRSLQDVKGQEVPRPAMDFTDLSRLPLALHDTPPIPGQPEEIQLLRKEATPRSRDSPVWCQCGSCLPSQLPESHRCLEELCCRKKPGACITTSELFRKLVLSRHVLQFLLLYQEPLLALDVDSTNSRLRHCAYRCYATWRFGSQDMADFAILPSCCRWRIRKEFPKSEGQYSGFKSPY
Experimental: Human P2X7R-expressing HEK293 cells were cultured in a humidified atmosphere of 5% CO2 at 37 °C in Dulbecco’s Modification of Eagle’s Medium (DMEM; Corning) supplemented with 10% (v/v) fetal bovine serum (Corning) and 1% (v/v) antibiotic–antimycotic (Gibco)[75]. To perform the assay, the DMEM was removed, and the HEK293 cells were washed with 3 mL of 1X DPBS (Dulbecco’s Phosphate-Buffered Saline; Corning). After the removal of DPBS solution, the cells were detached from the dish with 1 mL of trypsin/EDTA (Gibco), and the cells were collected by centrifugation. The cells (density of 2.25 × 10^7) were re-suspended in 4-(2-hydroxyethyl)-1-piperazineethanesulfonic acid (HEPES)-buffered salt solution consisting of 140 mM potassium chloride, 1 mM ethylene diamine tetraacetic acid (EDTA), 5 mM glucose, 20 mM HEPES, and 0.1 mM ethidium bromide (pH 7.4). The vehicles or appropriate range of concentrations of compounds (10 μL, pre-diluted in 10% (v/v) DMSO in DW from 10 mM stock) were added to each well of 96-well black plate (Corning), and 80 μL of the cell suspension was subsequently added to each well. BzATP (10 μL, pre-diluted in DW from 10 mM stock) was then added, and the final assay volume was maintained at 100 μL. After the incubation in 5% CO2 at 37 °C for 2 h, the ethidium dye uptake was detected by measuring the fluorescence (excitation wavelength of 530 nm and emission wavelength of 590 nm) of each well using a CHAMELEON™ Multi-Technology Plate Reader. The antagonistic activities of compounds are expressed as the percentages relative to the maximum accumulation of ethidium bromide observed in the control group with the stimulation of the hP2X7R by an agonist, BzATP. The IC50 values of compounds as antagonists were calculated using nonlinear regression analysis using OriginPro 9.1 software.

hP2X7R [2] = biological target: T1, hP2X7R; test: TEVC determination of antagonist binding kinetics in Xenopus oocytes; type: cell-based; parameters: expressed in transfected cells; host or cells: Xenopus laevis oocytes injected with capped cRNA (modified pUC19 vector, T7); conditions: single replicates
Experimental: Xenopus laevis frogs were from Nasco International (Fort Atkinson, WI) and kept at the Core Facility Animal Models (CAM) of the Biomedical Center (BMC) of LMU Munich, Germany (Az:4.3.2–5682/LMU/BMC/CAM) in accordance with the EU Animal Welfare Act. Ovaries were surgically extracted (ROB_54-011-AZ 2532.Vet_02-23-166), treated with collagenase (Nordmark, Uetersen, Germany 1.0–1.5 mg/mL, ≥2 at RT) and defolliculated (15-min treatment in Ca^2+-free oocyte Ringer (90 mM NaCl, 1 mM KCl, 2 mM MgCl2, 5 mM HEPES), respectively. 50 nL of cRNA (0.5 µg/µL) were injected using a Nanoject II injector (Science Products, Drummond) and oocytes were kept in ND96 (96 mM NaCl, 2 mM KCl, 1 mM MgCl2, 1 mM CaCl2, 5 mM HEPES, pH 7.4–7.5). The plasmid containing the hP2X7R was linearized with NotI-HF (NEB) and purified with the MinElute Reaction Cleanup Kit (Qiagen, Hilden, Germany). Capped cRNA was synthesized using the mMESSAGE mMACHINE™ T7 Transcription Kit (ThermoFisher Scientific, Schwerte, Germany) and dissolved in nuclease-free water (500 ng/µL). Injected oocytes were allowed to express for at least 36 hours.
Two-electrode voltage clamp recordings were performed at room temperature and a holding potential of −70 mV using a Turbo Tec-05X Amplifier (npi electronic, Tamm, Germany), a magnetic valve system, and CellWorks E 5.5.1 software. Currents were filtered at 1 kHz and digitized at 200 Hz. Electrode resistances were below 1.2 MΩ. […] Recordings were performed in ND96.
After obtaining reproducible agonist-evoked responses, solutions were switched to antagonist-containing recording solutions with and without ATP to determine association rates. Responses following antagonist application were normalized to the preceding, stabilized agonist responses. Dissociation was determined in 1- or 2 min intervals when currents were reduced to <10%. Association curves were fit to the data by the equation % Response = (100-Plateau)*exp(-kobs*Time) + Plateau, where Plateau indicates the response at equilibrium and kobs the experimentally determined on-rate. All data were analyzed using Prism software (GraphPad Software, Inc., Version 8.3.0, San Diego, CA) and are presented as means ± SD from at least three oocytes. […] The final concentration of DMSO in the recording solution was ≤1%.
Supplementary Fig. 10: Kinetics of ligands binding to the hP2X7R measured by TEVC. (A) […]
All data represented as mean ± S.D. with n=3, 7, 7, and 7 f or the experiments performed at 3 nM, 10 nM, 30 nM, and 100 nM […]
(B) Representative current traces for t he activation
(C) On- and off-r at e constants and Ki
Observed on- r at es kobs were determined by fitting the data (Fig. 4H, Supplementary Fig. 10A) to the function: % response = (100- Plateau)*exp(-kobs*time)+Plateau and plotted against the antagonist concentrations to obtain koff according to k obs=kon*F+koff. Assuming a (simplified) 1:1 binding model, of f-r at e constant koff and Ki values were estimated using the previous formulas as well as Ki=koff/kon. […]
determined by Ca2+ imaging (18 nM, Fig. 3B ) and the binding equilibrium reached at each […]
values of UB-MBX-46 c annot reflect an accurate value due to the nearly negligible dissociation on the timescale of the experiment. If k off was estimated based on the IC50 value (IC50 = koff/kon panel D), a more accurate koff value can be obtained. Numbers in square brackets are 95% Confidence Intervals. *values obtained from an extrapolated dose inhibition curve from D . (D) The plateau values, representing the binding equilibrium, were used to generate dose inhibition

[3] = antagonist concentration 3.2 (unit not given)
[4] = antagonist concentration 16 (unit not given)
[5] = antagonist concentration 80 (unit not given)
[6] = antagonist concentration 400 (unit not given)
[7] = antagonist concentration 2000 (unit not given)
[8] = antagonist concentration 10000 (unit not given)
[9] = antagonist concentration 100 (unit not given)
[10] = antagonist concentration 1000 (unit not given)

| Structure (SMILES) | mean % of maximum accumulation (hP2X7R [1]; [3]) [%] | mean % of maximum accumulation (hP2X7R [1]; [4]) [%] | mean % of maximum accumulation (hP2X7R [1]; [5]) [%] | mean % of maximum accumulation (hP2X7R [1]; [6]) [%] | mean % of maximum accumulation (hP2X7R [1]; [7]) [%] | mean % of maximum accumulation (hP2X7R [1]; [8]) [%] | IC50 (hP2X7R [1]) [nM] | ΔΔGexp (hP2X7R [1]) [kcal/mol] | MAX100 (% of maximum accumulation, replicates 1-3) (hP2X7R [1]; [3]) | MAX100 (% of maximum accumulation, replicates 1-3) (hP2X7R [1]; [4]) | MAX100 (% of maximum accumulation, replicates 1-3) (hP2X7R [1]; [5]) | MAX100 (% of maximum accumulation, replicates 1-3) (hP2X7R [1]; [6]) | MAX100 (% of maximum accumulation, replicates 1-3) (hP2X7R [1]; [7]) | MAX100 (% of maximum accumulation, replicates 1-3) (hP2X7R [1]; [8]) | other results |
| --- | --- | --- | --- | --- | --- | --- | --- | --- | --- | --- | --- | --- | --- | --- | --- |
| CC12CC3CC(C)(C1)CC(C(=O)NNc1ccccc1Cl)(C3)C2 [UB-ALT-P36] | 75.2635 | 81.0675 | 68.3254 | 62.0321 | 5.603 | -3.752 | 477 ± 170 | 1.43 ± 1.93 | 66.4908 and 84.0361 | 77.5726 and 94.2771 and 71.3528 | 56.9921 and 86.4458 and 61.5385 | 60.1583 and 61.747 and 64.191 | 0.7916 and 7.53 and 8.488 | -6.86 and -5.723 and 1.326 |  |
| CC12CC3(C)CC(C)(C1)CC(C(=O)NNc1ccccc1Cl)(C2)C3 [UB-ALT-P37] |  |  |  |  |  | 5.192 | > 1000 | >1.88 |  |  |  |  |  | 17.7966 and 0.7519 and -2.973 | mean % of maximum accumulation (hP2X7R [1]; [9]): 69.1292%; mean % of maximum accumulation (hP2X7R [1]; [10]): 66.8307%; MAX100 (% of maximum accumulation, replicates 1-3) (hP2X7R [1]; [9]): 71.3983 and 82.2055 and 53.7838; MAX100 (% of maximum accumulation, replicates 1-3) (hP2X7R [1]; [10]): 82.6271 and 51.3784 and 66.4865 |
| O=C(NNc1ccccc1Cl)C12C3C4C5C3C1C5C42 (centres unmarked) [UB-ALT-P38] | 92.6488 | 90.4406 | 85.6943 | 54.1625 | 8.486 | 7.125 | 430 ± 64 | 1.36 ± 1.50 | 94.8207 and 85.2995 and 97.8261 | 88.8446 and 87.4773 and 95 | 92.8287 and 88.3848 and 75.8696 | 70.5179 and 47.1869 and 44.7826 | 13.1474 and 15.7895 and -3.478 | 12.9482 and 12.3412 and -3.913 |  |
| O=C(NNc1ccccc1Cl)C12CC3CC(CC(C3)C1)C2 [UB-MALT-P30] |  |  |  |  |  |  |  |  |  |  |  |  |  |  | on-rate to hP2X7R, Response [%] (hP2X7R [2]; 3 nM, time 2 min): 96.4% and 100% and 92.9%; on-rate to hP2X7R, Response [%] (hP2X7R [2]; 3 nM, time 4 min): 96.4% and 97.5% and 92.9%; on-rate to hP2X7R, Response [%] (hP2X7R [2]; 3 nM, time 6 min): 96.4% and 97.5% and 92.9%; on-rate to hP2X7R, Response [%] (hP2X7R [2]; 10 nM, time 2 min): 93.8% and 78.8% and 87.9% and 77.9% and 84.1% and 80.6% and 76.1%; on-rate to hP2X7R, Response [%] (hP2X7R [2]; 10 nM, time 4 min): 83.3% and 71.2% and 77.8% and 75.3% and 77.2% and 75% and 67.4%; on-rate to hP2X7R, Response [%] (hP2X7R [2]; 10 nM, time 6 min): 77.1% and 65.4% and 72.7% (2×) and 74% and 66.7% and 65.2%; on-rate to hP2X7R, Response [%] (hP2X7R [2]; 10 nM, time 8 min): 58.3% and 61.5% and 69.7% and 72.7% (2×) and 66.7% and 63%; on-rate to hP2X7R, Response [%] (hP2X7R [2]; 10 nM, time 10 min): 45.8% and 57.7% and 67.7% and 72.7% (2×) and 66.7% and 65.2%; on-rate to hP2X7R, Response [%] (hP2X7R [2]; 10 nM, time 12 min): 39.6% and 55.8% and 65.7% and 72.7% (2×) and 66.7% and 65.2%; on-rate to hP2X7R, Response [%] (hP2X7R [2]; 30 nM, time 2 min): 54.3% and 59.3% and 51.2% and 37.5% and 42.9% and 45.7% and 46.9%; on-rate to hP2X7R, Response [%] (hP2X7R [2]; 30 nM, time 4 min): 45.7% and 44.4% and 19.5% and 33.3% (2×) and 34.3%; on-rate to hP2X7R, Response [%] (hP2X7R [2]; 30 nM, time 6 min): 42.4% and 37% and 17.1% and 20.8% and 28.6% and 25.7% and 28.3%; on-rate to hP2X7R, Response [%] (hP2X7R [2]; 30 nM, time 8 min): 40.2% and 33.3% and 14.6% and 20.8% and 23.8% and 22.9% and 22.4%; on-rate to hP2X7R, Response [%] (hP2X7R [2]; 30 nM, time 10 min): 39.1% and 33.3% and 9.8% and 29.2% and 23.8% and 22.9% and 22.4%; on-rate to hP2X7R, Response [%] (hP2X7R [2]; 100 nM, time 2 min): 20% and 4.2% and 3.2% and 8.2% and 20.5% and 17.6% and 21.1%; on-rate to hP2X7R, Response [%] (hP2X7R [2]; 100 nM, time 4 min): 6.7%; on-rate to hP2X7R, Response [%] (hP2X7R [2]; 100 nM, time 6 min): 6.7% and 1.4% and 0% and 2% and 10.8% and 10.6% and 10.5% |
